Common to all, as to assay type: cell-based
One test relates to Candida MY 1010. Put plainly: Antifungal inhibitor dilution assay in microtiter format (yeasts). Conditions: MY1010, lowest concentration to prevent growth, read-out: Minimum Inhibitory Concentration. On the procedure:
(§1) The compounds are particularly active towards filamentous fungi and yeasts including Candida albicans and Cryptococcus neoformans. The sensitivity of filamentous fungi and yeast is determined using inhibitor dilution assays in microtiter format. The compounds are dissolved in DMSO at 2 mg/ml and serially diluted in 0.1M phosphate buffer, pH 7.0 in the microtiter dish from 100 to 0.006 μg/ml. A standardized spore suspension for testing the filamentous fungi is prepared by inoculating Antibiotic Medium #3 containing 1.5% agar with spores such that 1.5×10^3 colony forming units are added per well. The microtiter wells are filled with 50 μof buffer containing compound and 50 μl of inoculated medium.
(§2) The sensitivity of yeasts is determined by inoculating yeast nitrogen base containing 1% dextrose (YNB/G) with aliquots of an overnight yeast culture grown in Yeast Morphology (YM) media at 35° C. and diluting in YNB/G to yield a final concentration of 1.5-7.5×10^3 colony forming units/well. To test the sensitivity of yeast, compound is solubilized in 10 percent aqueous DMSO at 2.56 mg/ml. The compound is diluted serially in YNB/G from 128 to 0.06 μg/ml and further diluted 1:10 in YNB/G. The wells are filled with 150 μl of media containing drug. The minimum inhibitory concentration (MIC) is defined as the lowest concentration to prevent growth after an incubation for 42 hours, at 28° C. for the filamentous fungi and 24 to 48 hours, at 35° for the yeasts.

Another test has as its system Candida MY 1012. Described as above. The note with it: MY1012, lowest concentration to prevent growth, read-out: Minimum Inhibitory Concentration. As to the method:
as §1, §2

A further test concerns Candida MY 1019. The test is described as above. Conditions: MY1019, lowest concentration to prevent growth, read-out: Minimum Inhibitory Concentration. As to the method:
as §1, §2

In another test the test system is Candida MY 1028. Described as above. The note with it: MY1028, lowest concentration to prevent growth, read-out: Minimum Inhibitory Concentration. As to the method:
as §1, §2

For another test, the system named is Candida MY 1055. The description is as above. The note with it: MY1055, lowest concentration to prevent growth, read-out: Minimum Inhibitory Concentration. As to the method: as §1, §2
Another test concerns Candida MY 1750. The description is as above. The note with it: MY1750, lowest concentration to prevent growth, read-out: Minimum Inhibitory Concentration. As to the method:
as §1, §2

The test system of a further test is Candida MY 2099. The test is described as above. The note with it: MY2099, lowest concentration to prevent growth, read-out: Minimum Inhibitory Concentration. As to the method: as §1, §2
Another test concerns Cryptococcus MY 1051. The test is described as above. Conditions: MY1051, lowest concentration to prevent growth, read-out: Minimum Inhibitory Concentration. On the procedure: as §1, §2
Another test relates to Cryptococcus MY 1146. Described as above. Conditions: MY1146, lowest concentration to prevent growth, read-out: Minimum Inhibitory Concentration. As to the method:
as §1, §2

The test system of the next test is Cryptococcus MY 2061. The test is described as above. The note with it: MY2061, lowest concentration to prevent growth, read-out: Minimum Inhibitory Concentration. As to the method:
as §1, §2

The next test deals with Cryptococcus MY 2062. The test is described as above. The note with it: MY2062, lowest concentration to prevent growth, read-out: Minimum Inhibitory Concentration. On the procedure:
as §1, §2

The next test deals with Sachromyces MY 1976. The description is as above. Conditions: lowest concentration to prevent growth, read-out: Minimum Inhibitory Concentration. As to the method: as §1, §2
In the next test the test system is Aspergillus MF 0383. Description: Antifungal inhibitor dilution assay in microtiter format (filamentous fungi). The note with it: MF0383, lowest concentration to prevent growth, read-out: Minimum Inhibitory Concentration. As to the method: as §1, §2
A further test concerns Aspergillus MF 4839. The description is as above. The note with it: MF4839, lowest concentration to prevent growth, read-out: Minimum Inhibitory Concentration. As to the method: as §1, §2
A further test relates to Aspergillus MF 5668. The test is described as above. Conditions: MF5668, lowest concentration to prevent growth, read-out: Minimum Inhibitory Concentration. On the procedure: as §1, §2
The test system of a further test is Aspergillus MF 5669. The test is described as above. The note with it: MF5669, lowest concentration to prevent growth, read-out: Minimum Inhibitory Concentration. On the procedure: as §1, §2

The source of these data is patent US5258401A, “Cholesterol lowering compounds” (Merck & Co., Inc., priority 1992, dated 1993).

≈ marks a conversion by molar mass, not a printed value. Where only a bound is given, the exact number is not on record here.

In the case of `C=C(CC[C@]12OC[C@@](O)(C(=O)O)[C@](C(=O)O)(O1)[C@H](OC(=O)/C=C/[C@@H](C)C[C@@H](C)CC)[C@H]2O)[C@@H](OC(C)=O)[C@H](C)Cc1ccccc1` [Zaragozic Acid A-3-Descarboxy, (1S,4S,5R,6R,7R)-1-[(4S)-acetoxy-3-methylene-(5R)-methyl-6-phenyl]hexyl-4,6,7-trihydroxy-6-O-((4S),(6S)-dimethyl-2-octenoyl)-2,8-dioxabicyclo-[3.2.1]octane-4,5-dicarboxylic acid], the MIC was 64 µg/mL (≈ 99 µM) in the test on Candida MY 1010; 16 µg/mL (≈ 24.7 µM) in the test on Candida MY 1012; > 128 µg/mL with Candida MY 1019; 32 µg/mL (≈ 49.5 µM) in the test with Candida MY 1028; 64 µg/mL (≈ 99 µM) with Candida MY 1055; 64 µg/mL (≈ 99 µM) in the test with Candida MY 1750. The MIC is > 128 µg/mL in the test with Candida MY 2099; 0.25 µg/mL (≈ 0.387 µM) with Cryptococcus MY 1051; 2 µg/mL (≈ 3.09 µM) with Cryptococcus MY 1146; 4 µg/mL (≈ 6.18 µM) in the test with Cryptococcus MY 2061; 1 µg/mL (≈ 1.55 µM) in the test with Cryptococcus MY 2062; > 128 µg/mL in the test with Sachromyces MY 1976. Moreover, the MIC in the test on Aspergillus MF 0383 is 2 µg/mL (≈ 3.09 µM); in the test with Aspergillus MF 4839 it was 8 µg/mL (≈ 12.4 µM); in the test with Aspergillus MF 5668, 32 µg/mL (≈ 49.5 µM); in the test on Aspergillus MF 5669, 8 µg/mL (≈ 12.4 µM).
For `C=C(CC[C@]12OC[C@@](O)(C(=O)OCOC(=O)C(C)(C)C)[C@](C(=O)O)(O1)[C@H](OC(=O)/C=C/[C@@H](C)C[C@@H](C)CC)[C@H]2O)[C@@H](OC(C)=O)[C@H](C)Cc1ccccc1` [Zaragozic acid A-3-descarboxy-4-methyl pivalate ester], the MIC in the test with Candida MY 1010 is > 128 µg/mL; in the test on Candida MY 1012, 16 µg/mL (≈ 21 µM); in the test on Candida MY 1019, > 128 µg/mL; with Candida MY 1028, > 128 µg/mL; in the test on Candida MY 1055, > 128 µg/mL; in the test with Candida MY 1750, > 128 µg/mL. The MIC was > 128 µg/mL with Candida MY 2099; 2 µg/mL (≈ 2.63 µM) in the test with Cryptococcus MY 1051; 8 µg/mL (≈ 10.5 µM) in the test on Cryptococcus MY 1146; 64 µg/mL (≈ 84.1 µM) in the test on Cryptococcus MY 2061; 8 µg/mL (≈ 10.5 µM) with Cryptococcus MY 2062; > 128 µg/mL in the test on Sachromyces MY 1976. Also, the MIC in the test with Aspergillus MF 0383 turned out to be 1 µg/mL (≈ 1.31 µM); with Aspergillus MF 4839, 32 µg/mL (≈ 42.1 µM); in the test with Aspergillus MF 5668 it was 32 µg/mL (≈ 42.1 µM); in the test on Aspergillus MF 5669, 32 µg/mL (≈ 42.1 µM).
